± gives the standard deviation of the averaged measurements.
How the values were obtained:
[1] = compound: CCc1cc(Nc2nccc(-c3c(-c4ccc(OC)c(C(=O)Nc5c(F)cccc5F)c4)nc4ccccn34)n2)c(OC)cc1N1CCC(N2CCN(S(C)(=O)=O)CC2)CC1; assay: surviving fraction relative to DMSO-only wells; higher = less growth inhibition; settings: exposure time: 5 days
Summary of the method: (§1)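 Inhibitors were tested at 0.5, 1, 5, 10, 50, 100, 500 and 1000 nM, applied continuously for five days beginning 24 hours after log-phase tumour cells were seeded at 250–500 per well in 384-well plates. CellTiter-Glo luminescence served as the viability measure, expressed as surviving fraction against the median of DMSO-only wells. Each line, screened three times, was kept only with replicate Pearson r >0.7 and median Z' >0.3.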

[2] = compound: C=CCn1c(=O)c2cnc(Nc3ccc(N4CCN(C)CC4)cc3)nc2n1-c1cccc(C(C)(C)O)n1 [MK-1775]; assay: as above; settings: exposure time: 5 days
Summary of the method: as §1

Row | Test System | surviving fraction ([1]; 0.5 nM) | surviving fraction ([1]; 1 nM) | surviving fraction ([1]; 5 nM) | surviving fraction ([1]; 10 nM) | surviving fraction ([1]; 50 nM) | surviving fraction ([1]; 100 nM) | surviving fraction ([1]; 500 nM) | surviving fraction ([1]; 1000 nM) | surviving fraction ([2]; 0.5 nM) | surviving fraction ([2]; 1 nM) | surviving fraction ([2]; 5 nM) | surviving fraction ([2]; 10 nM) | surviving fraction ([2]; 50 nM) | surviving fraction ([2]; 100 nM) | surviving fraction ([2]; 500 nM) | surviving fraction ([2]; 1000 nM)
1 | SYO1 SYNOVIAL | 0.945 ± 0.041 | 0.992 ± 0.031 | 0.948 ± 0.048 | 0.945 ± 0.045 | 0.969 ± 0.034 | 1.02 ± 0.044 | 0.949 ± 0.03 | 0.895 ± 0.022 | 1.01 ± 0.014 | 0.977 ± 0.053 | 1 ± 0.014 | 0.9618 ± 0.0076 | 0.658 ± 0.033 | 0.317 ± 0.076 | 0.473 ± 0.11 | 0.0491 ± 0.0039
2 | VCAP PROSTATE | 1.02 ± 0.1 | 1.05 ± 0.072 | 0.986 ± 0.12 | 1.07 ± 0.042 | 0.984 ± 0.091 | 1.05 ± 0.03 | 1.03 ± 0.055 | 0.9673 ± 0.0061 | 1.14 ± 0.079 | 1.14 ± 0.19 | 1.09 ± 0.042 | 1.08 ± 0.08 | 1.04 ± 0.12 | 0.52 ± 0.11 | 0.0963 ± 0.019 | 0.121 ± 0.019
3 | HELA CERVIX | 1.05 ± 0.035 | 1.07 ± 0.04 | 1.08 ± 0.027 | 1.09 ± 0.041 | 1.05 ± 0.05 | 1.07 ± 0.025 | 1.01 ± 0.066 | 0.97 ± 0.026 | 1.04 ± 0.025 | 1.07 ± 0.045 | 1.02 ± 0.064 | 0.993 ± 0.059 | 1.15 ± 0.039 | 1.113 ± 0.0066 | 0.0972 ± 0.0083 | 0.0538 ± 0.0035
4 | SAOS2 BONE | 1.1 ± 0.024 | 1.04 ± 0.025 | 1.11 ± 0.035 | 1.144 ± 0.0087 | 1.09 ± 0.016 | 1.19 ± 0.025 | 1.16 ± 0.045 | 1.11 ± 0.018 | 1.1 ± 0.019 | 1.01 ± 0.057 | 1.05 ± 0.091 | 1.07 ± 0.055 | 0.887 ± 0.033 | 0.637 ± 0.027 | 0.176 ± 0.024 | 0.06 ± 0.0087
5 | HCC1395 BREAST | 0.903 ± 0.1 | 0.903 ± 0.17 | 0.965 ± 0.24 | 0.916 ± 0.037 | 1.13 ± 0.2 | 0.831 ± 0.19 | 0.855 ± 0.22 | 0.934 ± 0.17 | 0.885 ± 0.071 | 1.169 ± 0.0022 | 1.03 ± 0.2 | 1.14 ± 0.12 | 0.935 ± 0.1 | 0.931 ± 0.12 | 0.741 ± 0.11 | 0.618 ± 0.083
6 | HCC202 BREAST | 1.11 ± 0.32 | 1.27 ± 0.15 | 1.21 ± 0.21 | 1.14 ± 0.17 | 1.4 ± 0.18 | 1.25 ± 0.13 | 1.14 ± 0.15 | 1.18 ± 0.05 | 1.137 ± 0.0059 | 1.13 ± 0.2 | 1.01 ± 0.21 | 0.991 ± 0.061 | 0.908 ± 0.17 | 0.712 ± 0.22 | 0.347 ± 0.08 | 0.361 ± 0.075
7 | MDAMB361 BREAST | 0.885 ± 0.088 | 0.947 ± 0.053 | 1.04 ± 0.051 | 0.887 ± 0.052 | 0.879 ± 0.044 | 0.998 ± 0.045 | 0.826 ± 0.041 | 0.726 ± 0.064 | 0.862 ± 0.075 | 0.805 ± 0.039 | 0.875 ± 0.053 | 0.79 ± 0.053 | 0.68 ± 0.066 | 0.549 ± 0.047 | 0.478 ± 0.014 | 0.459 ± 0.015
8 | COLO320DM LARGE INTESTINE | 1.08 ± 0.04 | 1.18 ± 0.11 | 1.17 ± 0.06 | 1.19 ± 0.071 | 1.19 ± 0.09 | 1.14 ± 0.095 | 1.11 ± 0.061 | 0.892 ± 0.041 | 1.09 ± 0.063 | 1.1 ± 0.12 | 1.08 ± 0.12 | 1.12 ± 0.033 | 0.834 ± 0.054 | 0.592 ± 0.16 | 0.139 ± 0.011 | 0.131 ± 0.014
9 | SCC003 HEADNECK | 0.958 ± 0.069 | 1.13 ± 0.031 | 0.966 ± 0.024 | 1.1 ± 0.12 | 1.03 ± 0.14 | 1.1 ± 0.19 | 1.03 ± 0.019 | 1.08 ± 0.085 | 1.12 ± 0.07 | 1.08 ± 0.11 | 1.1 ± 0.12 | 1.11 ± 0.06 | 0.927 ± 0.026 | 0.874 ± 0.05 | 0.421 ± 0.08 | 0.247 ± 0.019
10 | MG63 BONE | 0.953 ± 0.012 | 0.987 ± 0.028 | 1.005 ± 0.01 | 1.06 ± 0.026 | 0.968 ± 0.034 | 1.01 ± 0.014 | 0.956 ± 0.029 | 0.976 ± 0.047 | 1.02 ± 0.033 | 0.999 ± 0.026 | 1.07 ± 0.027 | 1.056 ± 0.0072 | 1.06 ± 0.053 | 1 ± 0.068 | 0.244 ± 0.025 | 0.121 ± 0.0076
11 | SG43 HEADNECK | 1.18 ± 0.18 | 1.1 ± 0.26 | 0.948 ± 0.15 | 0.985 ± 0.15 | 1.13 ± 0.046 | 0.908 ± 0.12 | 1.38 ± 0.024 | 1.25 ± 0.3 | 1.22 ± 0.14 | 1.01 ± 0.11 | 1.02 ± 0.084 | 0.823 ± 0.063 | 0.906 ± 0.072 | 0.911 ± 0.06 | 0.783 ± 0.14 | 0.549 ± 0.14
12 | MDAMB134 BREAST | 1.21 ± 0.028 | 1.02 ± 0.034 | 0.988 ± 0.11 | 1.05 ± 0.13 | 1.03 ± 0.27 | 0.906 ± 0.12 | 0.882 ± 0.16 | 0.996 ± 0.18 | 1.11 ± 0.1 | 1.02 ± 0.086 | 1.17 ± 0.039 | 1.075 ± 0.0064 | 1.08 ± 0.064 | 0.994 ± 0.047 | 0.752 ± 0.035 | 0.733 ± 0.0099
13 | SG27 HEADNECK | 1.04 ± 0.066 | 0.999 ± 0.11 | 1.06 ± 0.065 | 1.13 ± 0.057 | 1.05 ± 0.065 | 1.17 ± 0.19 | 1.2 ± 0.034 | 1.15 ± 0.071 | 1.04 ± 0.046 | 1.04 ± 0.11 | 1.08 ± 0.068 | 1.03 ± 0.11 | 0.969 ± 0.12 | 1.01 ± 0.14 | 0.853 ± 0.1 | 0.896 ± 0.061
14 | 143B BONE | 0.985 ± 0.033 | 0.959 ± 0.086 | 0.928 ± 0.13 | 1.03 ± 0.031 | 0.9995 ± 0.0035 | 0.996 ± 0.052 | 0.999 ± 0.0042 | 0.959 ± 0.023 | 0.998 ± 0.0057 | 1.01 ± 0.033 | 1.02 ± 0.045 | 1.02 ± 0.0028 | 1.025 ± 0.0057 | 0.993 ± 0.013 | 0.111 ± 0.011 | 0.067 ± 0.0042
15 | NOS1 BONE | 1 ± 0.038 | 1.05 ± 0.051 | 1.16 ± 0.14 | 1.35 ± 0.26 | 1.22 ± 0.21 | 1.14 ± 0.12 | 1.12 ± 0.11 | 0.949 ± 0.043 | 0.939 ± 0.1 | 1.08 ± 0.028 | 0.945 ± 0.02 | 0.764 ± 0.039 | 0.209 ± 0.011 | 0.158 ± 0.02 | 0.223 ± 0.029 | 0.206 ± 0.036
16 | LNCAP PROSTATE | 0.88 ± 0.064 | 0.964 ± 0.16 | 0.996 ± 0.08 | 0.849 ± 0.096 | 0.895 ± 0.15 | 0.93 ± 0.19 | 0.882 ± 0.063 | 0.632 ± 0.1 | 0.99 ± 0.088 | 0.951 ± 0.14 | 0.995 ± 0.082 | 0.921 ± 0.14 | 0.984 ± 0.065 | 0.544 ± 0.073 | 0.161 ± 0.012 | 0.0767 ± 0.013
17 | JURKAT HAEMATOPOIETIC AND LYMPHOID TISSUE | 1.06 ± 0.011 | 1.07 ± 0.029 | 1.06 ± 0.027 | 1.07 ± 0.021 | 1.05 ± 0.022 | 1.01 ± 0.029 | 0.973 ± 0.034 | 0.886 ± 0.037 | 1.09 ± 0.017 | 1.11 ± 0.016 | 1.08 ± 0.019 | 1.099 ± 0.0087 | 0.986 ± 0.038 | 0.772 ± 0.036 | 0.039 ± 0.001 | 0.039
18 | CHLA90 AUTONOMIC GANGLIA | 0.955 ± 0.039 | 1 ± 0.011 | 0.969 ± 0.054 | 0.932 ± 0.028 | 0.9353 ± 0.0021 | 0.94 ± 0.05 | 0.986 ± 0.031 | 0.952 ± 0.055 | 1.03 ± 0.051 | 1.06 ± 0.073 | 0.981 ± 0.023 | 0.963 ± 0.024 | 0.791 ± 0.011 | 0.681 ± 0.036 | 0.0927 ± 0.0067 | 0.076 ± 0.013
19 | MDAMB468 BREAST | 0.909 ± 0.09 | 1.04 ± 0.053 | 1.12 ± 0.047 | 1.14 ± 0.041 | 1.04 ± 0.091 | 1.17 ± 0.073 | 1.04 ± 0.07 | 1.06 ± 0.041 | 1.06 ± 0.041 | 1.05 ± 0.049 | 1.07 ± 0.089 | 1.02 ± 0.043 | 1.12 ± 0.04 | 0.985 ± 0.029 | 0.259 ± 0.026 | 0.0773 ± 0.0029
20 | HSSYII SYNOVIAL | 0.917 ± 0.021 | 0.933 ± 0.033 | 1.01 ± 0.047 | 0.951 ± 0.045 | 0.915 ± 0.043 | 0.958 ± 0.037 | 0.899 ± 0.034 | 0.798 ± 0.021 | 1.05 ± 0.034 | 1 ± 0.03 | 1.002 ± 0.0055 | 0.884 ± 0.012 | 0.628 ± 0.035 | 0.12 ± 0.0027 | 0.147 ± 0.064 | 0.0442 ± 0.0045
21 | H23 LUNG | 0.939 ± 0.042 | 1.02 ± 0.032 | 0.973 ± 0.012 | 1.06 ± 0.078 | 0.997 ± 0.014 | 1.02 ± 0.038 | 1.02 ± 0.029 | 1 ± 0.032 | 1.04 ± 0.018 | 1.02 ± 0.041 | 1.04 ± 0.06 | 1.03 ± 0.1 | 0.86 ± 0.054 | 0.632 ± 0.045 | 0.285 ± 0.023 | 0.209 ± 0.034

Reference: the supplement of paper PMC6045584
